Read-outs that look alike come from different tables or passages of the source.
What was measured:
[1] = test system: MES-SA/Dx5 cells; experiment: PrestoBlue viability assay, MES-SA/Dx5 cells (MDR, P-gp positive); details: for IC50: Homo sapiens; for SR: selectivity ratio MES-SA vs MES-SA/Dx5, without TQ; for SR_TQ: selectivity ratio MES-SA vs MES-SA/Dx5, with TQ
[2] = UV-visible spectrophotometric titrations (pKa); assay type: physicochemical; details: 25 °C; for pKa: water with 0.2% (v/v) DMSO
Experimental: Spectrophotometrical determination of pKa values was performed as previously reported.[20],[50] An Agilent Cary 8454 diode array spectrophotometer was used to record the UV–visible spectra in the interval 200–800 nm. The path length was between 1 and 5 cm. The spectrophotometric titrations were performed in water with 0.2% (v/v) DMSO on samples containing the compounds at 2–50 μM in the pH range from 2 to 11.5 at 25.0 ± 0.1 °C at an ionic strength of 0.10 M (KCl). Proton dissociation constants and the individual spectra of the species in the different protonation states were calculated with the computer program PSEQUAD.[62]

[3] = test system: MES-SA cells; experiment: PrestoBlue viability assay, MES-SA cells; details: Homo sapiens, MES-SA
[4] = test system: A431-B1 cells; experiment: PrestoBlue viability assay, A431-B1 (A431-ABCB1) cells
[5] = test system: A431 cells; experiment: PrestoBlue viability assay, A431 cells; details: Homo sapiens
[6] = MES-SA/Dx5, 72 h, read-out: IC50 / μM MES-SA/Dx5, absence of TQ, 72 h incubation
[7] = MES-SA/Dx5, read-out: pIC50 value MES-SA/Dx5, MES-SA/Dx5 cells, without TQ (converted)
[8] = 0.2% DMSO, I = 0.10 M KCl, read-out: pKa (OH), experimentally determined
[9] = quinolinium nitrogen, I = 0.10 M KCl, read-out: pKa (NquinH+), experimentally determined
[10] = 72 h, read-out: IC50 / μM MES-SA, absence of TQ, 72 h incubation
[11] = read-out: pIC50 value MES-SA, MES-SA cells, without TQ (converted)
[12] = piperidinium / pyrrolidinium / morpholinium N, read-out: pKa (other; N+amH alkylamine nitrogen), experimentally determined
[13] = 72 h, read-out: IC50 / µM A431-B1, 72 h incubation
[14] = read-out: pIC50 A431-B1, SARM figure (converted)
[15] = MES-SA/Dx5, read-out: IC50 / μM MES-SA/Dx5 (values in parentheses), presence of 1 μM P-gp inhibitor tariquidar (TQ)
[16] = MES-SA/Dx5, read-out: pIC50 value MES-SA/Dx5 + TQ, MES-SA/Dx5 cells, with TQ (converted)
[17] = read-out: IC50 / μM MES-SA (values in parentheses), presence of 1 μM P-gp inhibitor tariquidar (TQ)
[18] = read-out: pIC50 value MES-SA+TQ, MES-SA cells, with TQ (converted)
[19] = A-431, 72 h, read-out: IC50 / µM A431, 72 h incubation
[20] = A-431, read-out: pIC50 A431, SARM figure (converted)
[21] = read-out: pKa (NpiperaziniumH+ closer to quinoline ring), experimentally determined
[22] = read-out: pIC50 MES-SA, absence of TQ (converted), SARM figure
[23] = read-out: pIC50 MES-SA_TQ, presence of 1 μM TQ (converted), SARM figure

SMILES	IC50 [1, 6] [µM]	IC50 [1, 7] [µM]	SR [1]	pKa [2, 8]	pKa [2, 9]	IC50 [3, 10] [µM]	IC50 [3, 11] [µM]	IC50 [4, 14] [µM]	SR_TQ [1]	IC50 [3, 18] [µM]	IC50 [5, 20] [µM]	other results
COCc1ccc(O)c2ncccc12 [Compound 14]	1.79 ± 0.09	1.78	1.4	9.43 ± 0.03	4.64 ± 0.03	2.51 ± 0.13	2.51					
Oc1ccc(CN2CCCCC2)c2cccnc12 [Compound 47]	4.36 ± 0.4	4.37	1.71	8.45 ± 0.03	3.83 ± 0.03	7.45 ± 0.06	7.41					pKa [2, 12]: 10.23 ± 0.03
CCOC(=O)C1CCN(Cc2cc(Cl)c3cccnc3c2O)CC1 [Compound 49]	0.18 ± 0.03	0.178	9.91			1.78 ± 0.12	1.78	2	1.73	1.7	8.13	IC50 [4, 13]: 1.99 ± 0.25 µM; IC50 [1, 15]: 0.98 µM; IC50 [1, 16]: 0.977 µM; IC50 [3, 17]: 1.7 µM; IC50 [5, 19]: 8.57 ± 2.94 µM
Oc1c(CN2CCCCCC2)cc(Cl)c2cccnc12 [Compound 53]	0.33 ± 0.06	0.324	8.4			2.76 ± 0.14	2.75	2.57	1.32	2.63	5.5	IC50 [4, 13]: 2.94 ± 1.69 µM; IC50 [1, 15]: 2 ± 0.19 µM; IC50 [1, 16]: 2 µM; IC50 [3, 17]: 2.64 ± 0.27 µM; IC50 [5, 19]: 5.57 ± 1.08 µM
CCN1CCN(Cc2ccc(O)c3ncccc23)CC1 [Compound 55]	21.38 ± 0.1	21.4	0.83	9.67 ± 0.03	4.94 ± 0.03	17.7 ± 3.14	17.4					pKa ([2]; read-out: pKa (NpiperaziniumH+ at methyl / N-ethyl), experimentally determined): 5.48 ± 0.03; pKa [2, 21]: 2.6 ± 0.03
Oc1ccc(CN2CCN(c3ccccc3)CC2)c2cccnc12 [Compound 57]	4.19 ± 0.15	4.17	0.88	8.88 ± 0.03	3.63 ± 0.03	3.67 ± 0.35	3.63					pKa [2, 21]: 6.69 ± 0.03
Cc1ccccc1N1CCN(Cc2ccc(O)c3ncccc23)CC1 [Compound 58]	3.01 ± 0.58	2.95	1.94			5.84 ± 1.02	5.75	30.9	1.91	5.75	23.4	IC50 [4, 13]: 31.2 µM; IC50 [1, 15]: 3.02 ± 0.01 µM; IC50 [3, 17]: 5.78 ± 0.49 µM; IC50 [3, 22]: 5.75 µM; IC50 [3, 23]: 5.75 µM; IC50 [5, 19]: 23.3 µM
Oc1c(CN2CCCc3ccccc32)ccc2cccnc12 [Compound 79]	13.5 ± 0.7	13.5	0.75	9.98 ± 0.03	4.45 ± 0.03	10.1 ± 0.38	10					pKa (other; N+amH alkylamine nitrogen), experimentally determined ([2]; piperidinium / pyrrolidinium / morpholinium N, water): 1.69; pKa [2, 12]: 1.7 ± 0.1
Oc1c(C(c2ccccn2)N2CCCC2)ccc2cccnc12 (centres unmarked) [Compound 84]	10.2 ± 0.6	10.2	1.69			17.2 ± 1.86	17	9.55			41.7	
Oc1c(C(c2ccccn2)N2CCCC2)cc(Cl)c2cccnc12 (centres unmarked) [Compound 90]	6.3 ± 0.15	6.31	1.91			12 ± 1.5	12	13.2	1.78	5.89	49	IC50 [1, 16]: 3.31 µM
Oc1c(C(c2ccncc2)N2CCCCC2)ccc2cccnc12 (centres unmarked) [Compound 96]	14 ± 1.5	13.8	1.62			22.7 ± 0.86	22.9	4.57			35.5	IC50 ([1]; MES-SA/Dx5, read-out: pIC50 Dx5, absence of TQ (converted), SARM figure): 8.32 µM; IC50 ([1]; MES-SA/Dx5, read-out: pIC50 Dx5_TQ, presence of 1 μM TQ (converted), SARM figure): 12.6 µM; IC50 [3, 22]: 15.5 µM; IC50 [3, 23]: 13.8 µM
Oc1c(C(c2ccccc2)N2CCCCC2)cc(Cl)c2cccnc12 (centres unmarked) [Compound 97]	14 ± 0.15	13.8	1.06	6.46 ± 0.03	1.7 ± 0.1	14.9 ± 0.18	14.8					pKa [2, 12]: 10.75 ± 0.03
Oc1c(C(c2ccccn2)N2CCCCC2)cc(Cl)c2cccnc12 (centres unmarked) [Compound 98]	16.6 ± 0.88	16.6	1.92			31.9 ± 1.55	31.6	24	2.45	33.1	50.1	IC50 [1, 16]: 13.5 µM
Oc1c(C(c2ccccn2)N2CCOCC2)cc(Cl)c2cccnc12 (centres unmarked) [Compound 108]	24.7 ± 4.26	24.5	1.62	9.42 ± 0.03	1.89 ± 0.03	40 ± 9.54	38.9					pKa ([2]; read-out: pKa (NpyridiniumH+), experimentally determined): < 2; pKa [2, 12]: 5.53 ± 0.03
CN1CCN(C(c2ccccn2)c2cc(Cl)c3cccnc3c2O)CC1 (centres unmarked) [Compound 114]	13.9 ± 0.46	13.8	1.15			16 ± 1.31	15.8	17.4			49	

Source: publication PMC9189845, “Structure–Activity Relationships of 8-Hydroxyquinoline-Derived Mannich Bases with Tertiary Amines Targeting Multidrug-Resistant Cancer” (Journal of Medicinal Chemistry, 2022)
